This note sets out measurements from ChEMBL document CHEMBL3994576, “Targeting Alzheimer's disease by investigating previously unexplored chemical space surrounding the cholinesterase inhibitor donepezil” (Eur J Med Chem, 2017).

For series [1], the target named is Acetylcholinesterase (Electrophorus electricus, UniProt O42275). Put plainly: Inhibition of electric eel AChE using acetylthiocholine iodide as substrate by Ellman's method. On the technique in general: In Ellman's method for cholinesterases, released thiocholine reacts with DTNB.
The test system of series [2] is SH-SY5Y. The series can be described thus: cells. The format is ADME, cell-based. The note with it: Homo sapiens, 72 h.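 Also: cytotoxicity read out with an SRB assay.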
The nature of series [3]: Elimination half life in human. The format is ADME. The note with it: read-out: beta t1/2.
The nature of series [4]: clinical. Conditions: human, in vivo, po.

For orientation: IC50 means the point on the concentration scale where inhibition reaches its midpoint. Read a high IC50 as lower potency. What is called bioavailability is dose-corrected exposure relative to a reference, in per cent.

Sequence of Acetylcholinesterase (O42275 whole entry): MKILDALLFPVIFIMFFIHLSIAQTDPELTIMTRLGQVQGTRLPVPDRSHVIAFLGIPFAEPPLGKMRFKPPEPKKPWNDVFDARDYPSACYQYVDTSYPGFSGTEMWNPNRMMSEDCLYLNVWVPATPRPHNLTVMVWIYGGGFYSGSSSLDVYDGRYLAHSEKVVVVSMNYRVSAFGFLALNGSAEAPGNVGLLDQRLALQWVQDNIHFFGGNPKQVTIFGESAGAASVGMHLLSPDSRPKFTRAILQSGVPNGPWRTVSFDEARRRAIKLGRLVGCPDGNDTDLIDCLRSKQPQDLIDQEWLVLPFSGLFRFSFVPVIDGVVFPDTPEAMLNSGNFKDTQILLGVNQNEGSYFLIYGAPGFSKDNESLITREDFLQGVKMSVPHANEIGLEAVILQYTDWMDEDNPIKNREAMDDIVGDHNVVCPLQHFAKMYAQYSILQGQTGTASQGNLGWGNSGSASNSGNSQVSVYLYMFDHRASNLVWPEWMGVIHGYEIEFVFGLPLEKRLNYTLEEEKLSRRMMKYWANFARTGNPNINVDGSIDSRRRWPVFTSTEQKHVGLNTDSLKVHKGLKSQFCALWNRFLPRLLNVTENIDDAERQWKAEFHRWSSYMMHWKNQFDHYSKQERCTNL

Take `COc1cc2c(cc1OC)C(=O)/C(=C/C1CCN(Cc3ccccc3)CC1)C2`: the IC50 came out at 0.42 µM in series [1] and 3.99 µM in series [2].
With `COc1cc2c(cc1OC)C(=O)/C(=C/C1CCCCN1Cc1ccccc1)C2` (stereo not given), the IC50 in series [1] was 0.75 µM.
Turning to `COc1cc2c(cc1OC)C(=O)C(C[C@@H]1CCCN1Cc1ccccc1)C2` (stereo not given in full), the IC50 in series [1] stood at 3.16 µM.
`COc1cc2c(cc1OC)C(=O)C(C(=O)OCC1CCN(Cc3ccccc3)C1)C2` (stereo not given) came in with a half-inhibitory concentration (IC50) in series [1] greater than 10 µM.
As to `COc1cc2c(cc1OC)C(=O)C(CC1CCCN(Cc3ccccc3)C1)C2` (stereo not given), the values for the IC50 in series [1] and in series [2] were 0.51 µM and 66.7 µM, respectively.
Regarding `COc1cc2c(cc1OC)C(=O)/C(=C/C1CCCN1Cc1ccccc1)C2` (stereo not given), the IC50 is greater than 10 µM in series [1] and 19 µM in series [2].
The like results for `COc1cc2c(cc1OC)C(=O)C(CC1CCN1Cc1ccccc1)C2` (stereo not given) were, in that order, greater than 10 µM and 58.5 µM.
`COc1cc2c(cc1OC)C(=O)C(C(=O)OCC1CCCN(Cc3ccccc3)C1)C2` (stereo not given) showed an IC50 in series [1] greater than 10 µM.
As to `COc1cc2c(cc1OC)C(=O)C(C(=O)OCC1CCN1Cc1ccccc1)C2` (stereo not given), the IC50 in series [1] is greater than 10 µM.
As to `COc1cc2c(cc1OC)C(=O)/C(=C/C1CN(Cc3ccccc3)C1)C2`, the IC50 in series [1] amounted to 0.7 µM; in series [2], 1.26 µM.
For the compound `COc1cc2c(cc1OC)C(=O)/C(=C/C1CCCN(Cc3ccccc3)C1)C2` (stereo not given), the IC50 in series [1] was determined as 1.18 µM; in series [2], 4.72 µM.
Take `COc1cc2c(cc1OC)C(=O)C(CC1CCN(Cc3ccccc3)C1)C2` (stereo not given): inhibition in series [1] was half-maximal at 1.74 µM (IC50).
Turning to `COc1cc2c(cc1OC)C(=O)C(OC(=O)C1CCN(Cc3ccccc3)CC1)C2` (stereo not given), the IC50 in series [2] is greater than 100 µM.
In the case of `COc1cc2c(cc1OC)C(=O)C(C(=O)OC1CCN(Cc3ccccc3)CC1)C2` (stereo not given), the 50% inhibitory concentration (IC50) in series [1] was 3.03 µM; in series [2] it was greater than 100 µM.
Turning to `COc1cc2c(cc1OC)C(=O)C(C(=O)OCC1CCCN1Cc1ccccc1)C2` (stereo not given), the IC50 in series [1] was greater than 10 µM.
Regarding `COc1cc2c(cc1OC)C(=O)/C(=C/C1CCN(Cc3ccccc3)C1)C2` (stereo not given), the values for the IC50 in series [1] and in series [2] were 0.52 µM and 6.59 µM, respectively.
On to `COc1cc2c(cc1OC)C(=O)C(CC1CN(Cc3ccccc3)C1)C2` (stereo not given), for which the IC50 came out at 1.13 µM in series [1] and 8.01 µM in series [2].
Compound `COc1cc2c(cc1OC)C(=O)C(C(=O)OCC1CCCCN1Cc1ccccc1)C2` (stereo not given) came in with an IC50 in series [1] greater than 10 µM.
For `COc1cc2c(cc1OC)C(=O)C(C(=O)OCC1CN1Cc1ccccc1)C2` (stereo not given), the half-maximal inhibitory concentration (IC50) in series [1] was greater than 10 µM.
As for `COc1cc2c(cc1OC)C(=O)C(CC1CCCCN1Cc1ccccc1)C2` (stereo not given), the IC50 is 0.46 µM in series [1] and greater than 100 µM in series [2].
As for `COc1cc2c(cc1OC)C(=O)C(C(=O)C1CCN(Cc3ccccc3)CC1)C2` (stereo not given), the IC50 in series [1] amounted to 0.66 µM; in series [2] it was 63.9 µM.
Compound `COc1cc2c(cc1OC)C(=O)C(C(=O)OCC1CCN(Cc3ccccc3)CC1)C2` (stereo not given) had an IC50 in series [1] greater than 10 µM.
In turn, `COc1cc2c(cc1OC)C(=O)/C(=C/C1CN1Cc1ccccc1)C2` (stereo not given) returned an IC50 in series [1] greater than 10 µM.
Turning to `COc1cc2c(cc1OC)C(=O)C(C(=O)OCC1CN(Cc3ccccc3)C1)C2` (stereo not given), the values for the IC50 in series [1] and in series [2] were greater than 10 µM and greater than 100 µM, respectively.
Regarding `COc1cc2c(cc1OC)C(=O)/C(=C/C1CCN1Cc1ccccc1)C2` (stereo not given), in series [1], the IC50 was greater than 10 µM.
Take `COc1cc2c(cc1OC)C(=O)C(CC1CCN(Cc3ccccc3)CC1)C2` (stereo not given) [DONEPEZIL]: in series [2], half-maximal inhibition (IC50) required 15.5 µM. In series [3], the half-life fell in the range of 70 to 80 h. In addition, the bioavailability in series [4] was determined as 100%.
